# Assay results taken from US10050214B2, “Near-ultraviolet stimulated light-emitting compound and production method for same” (NANO CMS CO., LTD., priority 2014, dated 2018).
# Assays:
# Assay type in all cases: physicochemical
# [1] = Residual fluorescent intensity after artificial light exposure (ASTM G 154-06 Cycle 1)
# Method: The obtained quinazolinone compound was irradiated with near-UV light in the wavelength of 365 nm, and the intensity of discharged fluorescence was measured. The fluorescent intensity was measured using a fluorescence spectrometer (DARSA-5000, PSI Co., Ltd.), under the condition of 365 nm stimulation wavelength, cumulative average of five-time measurements, and 1024×128 CCD sensor shape. In addition, measurement of residual fluorescent intensity after artificial light exposure was repeated identically according to ASTM G 154-06 Cycle 1 standard.
# [2] = Solubility in organic solvents (eight product items); conditions: for Solubility, 2% Sodium Hydroxide (Caustic Soda) Solution: 2% Sodium Hydroxide solution; for solubility in organic solvents (in words): summary of TABLE 3
# Method: (§1) Further, the melting point was measured using the melting point measuring instrument (M5000, KRÜSS GmbH), by assuming that the phase change is at the point where the change in transmissivity reaches 20%. Solubility in organic solvents was measured with respect to eight product items.
# [3] = Chemical resistance and solvent resistance tests on printed material; conditions: summary of TABLE 4; printed material with 10% compound
# Method: (§2) In addition, compositions respectively containing 10% compounds of embodiments 6 and 11 were sealed on a non-florescent paper, using a grinder and an offset plate printing press (HFT-225, HONGFAT machinery manufacturing Co., Ltd.). Chemical resistance tests and solvent resistance tests were performed on the printed material for 30 minutes at 23° C. with respect to each of nine product items. Furthermore, grades with reference to the standard and remaining fluorescence intensities were measured by irradiating the near-ultraviolet light of 365 nm wavelength, using a weatherability tester (QUV, Q-LAB Corporation), according to ASTM G154-06 Cycle No. 1 standard (except for the condensation conditions).
# [4] = Weatherability test (QUV tester, ASTM G154-06 Cycle No. 1); conditions: in words
# Method: as §2
# [5] = Thermal stability (melting point measuring instrument); conditions: summary of TABLE 3
# Method: as §1
The remaining fluorescence intensity (after artificial light exposure) Coating (10%) [1] [%],Structure (SMILES),also measured
65,"O=c1[nH]c(-c2cc(Cl)ccc2O)nc2ccccc12 [Embodiment 4, 2-(5-chloro-2-hydroxyphenyl)quinazoline-4(3H)-on]",
80,"O=c1[nH]c(-c2cc(Cl)ccc2O)nc2ccc(Cl)cc12 [Embodiment 5, 6-choloro-2-(5-chloro-2-hydroxyphenyl)quinazoline-4(3H)-on]",
70,"O=c1[nH]c(-c2cc(Cl)ccc2O)nc2cc(Cl)ccc12 [Embodiment 6, 7-chloro-2-(5-chloro-2-hydroxyphenyl)quinazoline-4(3H)-on]","Solubility, 2% Sodium Hydroxide (Caustic Soda) Solution [2]: Resolved; solubility in organic solvents (in words) [2]: low; solvent resistance (in words) [3]: high solvent resistance; light fastness grade and remaining fluorescence intensity compared with conventional commercial products [4]: higher light fastness grade and remaining fluorescence intensity than those of conventional commercial products; thermal stability (in words) [5]: high"
40,"COc1ccc(-c2nc3ccccc3c(=O)[nH]2)c(O)c1 [Embodiment 7, 2-(2-hydroxy-4-methoxyphenyl)quinazoline-4-(3H)-on]",
45,"COc1ccc(-c2nc3ccc(Cl)cc3c(=O)[nH]2)c(O)c1 [Embodiment 8, 6-chloro-2-(2-hydroxy-4-methoxyphenyl)quinazoline-4(3H)-on]",
60,"O=c1[nH]c(-c2ccc(Cl)cc2O)nc2ccccc12 [Embodiment 10, 2-(4-chloro-2-hydroxyphenyl)quinazoline-4(3H)-on]",
70,"O=c1[nH]c(-c2ccc(Cl)cc2O)nc2ccc(Cl)cc12 [Embodiment 11, 6-chloro-2-(4-chloro-2-hydroxyphenyl)quinazoline-4(3H)-on]","Solubility, 2% Sodium Hydroxide (Caustic Soda) Solution [2]: Resolved; solubility in organic solvents (in words) [2]: low; solvent resistance (in words) [3]: high solvent resistance; light fastness grade and remaining fluorescence intensity compared with conventional commercial products [4]: higher light fastness grade and remaining fluorescence intensity than those of conventional commercial products; thermal stability (in words) [5]: high"
40,"O=c1[nH]c(-c2ccc(Cl)cc2O)nc2cc(Cl)ccc12 [Embodiment 12, 7-chloro-2-(4-chloro-2-hydroxyphenyl)quinazoline-4(3H)-on]",
65,"O=c1[nH]c(-c2cc(F)ccc2O)nc2ccccc12 [Embodiment 13, 2-(5-fluoro-2-hyroxyphenyl)quinazoline-4(3H)-on]",
60,"O=c1[nH]c(-c2c(O)cccc2Cl)nc2ccccc12 [Embodiment 16, 2-(2-chloro-6-hyrdoxyphenyl)quinazoline-4(3H)-on]",
60,"O=c1[nH]c(-c2cccc(Cl)c2O)nc2ccccc12 [Embodiment 17, 2-(3-choloro-2-hydroxyphenyl)quinazoline-4(3H)-on]",
